This note sets out measurements from ChEMBL document CHEMBL1955797, “Discovery of vinylcycloalkyl-substituted benzimidazole TRPM8 antagonists effective in the treatment of cold allodynia” (Bioorg Med Chem Lett, 2012).

Active and inactive are the calls of the source. The rule behind the calls is not given here. Bounds are passed on as bounds.

Data set [1] in a line: Metabolic stability in rat liver microsomes assessed as compound remaining after 10 mins. Format: ADME, Microsome. The following applies: read-out: Stability. A general note: Microsomes from liver hold many membrane-bound enzymes, among them those of drug oxidation.
Data set [2] deals with Transient receptor potential M8 protein (Canis lupus familiaris, UniProt Q1A7N1). As to the kind of experiment: Antagonist activity at dog TRPM8 expressed in HEK293 cells assessed as inhibition of icilin-induced calcium flux by FLIPR assay. Format: functional, cell-based. In general terms: Calcium flux is commonly read through the fluorescence of an indicator in the cells.
Transient receptor potential M8 protein, sequence (Q1A7N1 whole entry): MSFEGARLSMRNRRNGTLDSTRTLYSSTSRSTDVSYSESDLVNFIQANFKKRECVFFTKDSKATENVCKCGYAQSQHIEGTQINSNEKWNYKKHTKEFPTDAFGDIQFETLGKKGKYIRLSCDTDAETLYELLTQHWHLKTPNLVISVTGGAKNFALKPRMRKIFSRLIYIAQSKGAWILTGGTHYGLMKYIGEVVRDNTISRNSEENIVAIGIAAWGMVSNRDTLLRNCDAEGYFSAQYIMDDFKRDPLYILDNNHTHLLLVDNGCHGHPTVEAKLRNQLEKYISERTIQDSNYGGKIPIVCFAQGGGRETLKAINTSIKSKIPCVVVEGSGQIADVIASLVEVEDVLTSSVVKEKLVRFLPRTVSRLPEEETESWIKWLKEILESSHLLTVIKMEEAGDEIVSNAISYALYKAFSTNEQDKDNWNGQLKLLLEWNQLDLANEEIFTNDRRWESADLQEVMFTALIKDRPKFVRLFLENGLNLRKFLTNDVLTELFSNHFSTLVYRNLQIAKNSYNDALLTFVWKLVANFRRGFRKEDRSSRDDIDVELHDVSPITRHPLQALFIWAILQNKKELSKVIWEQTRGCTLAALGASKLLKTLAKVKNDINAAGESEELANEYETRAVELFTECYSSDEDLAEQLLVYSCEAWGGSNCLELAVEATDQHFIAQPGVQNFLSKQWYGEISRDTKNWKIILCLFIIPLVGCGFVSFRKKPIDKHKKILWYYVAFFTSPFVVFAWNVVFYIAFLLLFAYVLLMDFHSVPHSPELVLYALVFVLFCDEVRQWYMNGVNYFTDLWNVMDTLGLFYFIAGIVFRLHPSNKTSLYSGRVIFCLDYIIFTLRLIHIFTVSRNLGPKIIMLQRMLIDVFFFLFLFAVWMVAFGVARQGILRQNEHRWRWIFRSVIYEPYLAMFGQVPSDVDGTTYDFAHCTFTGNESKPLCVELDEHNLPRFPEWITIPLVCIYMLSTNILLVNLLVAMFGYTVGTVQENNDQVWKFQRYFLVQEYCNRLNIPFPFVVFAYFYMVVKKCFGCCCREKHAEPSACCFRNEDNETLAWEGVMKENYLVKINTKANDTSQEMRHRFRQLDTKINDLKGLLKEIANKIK

The nature of data set [3]: Metabolic stability in dog liver microsomes assessed as compound remaining after 10 mins. Type of data set: ADME, Canis lupus familiaris, Microsome. Conditions: read-out: Stability.
A short description of data set [4]: Metabolic stability in human liver microsomes assessed as compound remaining after 10 mins. Type of data set: ADME, Microsome. Conditions: read-out: Stability.
The target in data set [5] is Transient receptor potential M8 protein (Canis lupus familiaris) (UniProt Q1A7N1). As to the kind of experiment: Antagonist activity at dog TRPM8 expressed in human HEK293 cells assessed as inhibition of icilin-induced calcium flux at 0.2 uM by FLIPR assay. Type of data set: functional, cell-based.
Transient receptor potential M8 protein (Canis lupus familiaris), sequence (Q1A7N1 1-1104): as the sequence (Q1A7N1 whole entry) above
Data set [6] is described as follows: Half life in rat at 10 mg/kg. Type of data set: ADME, organism-based. Also noted: dose 10 mg/kg. Conditions: in vivo.
Data set [7] addresses T1, Cytochrome P450 3A4 (Homo sapiens, UniProt P08684). Put plainly: Inhibition of CYP3A4 in human liver microsomes. Format: ADME, Microsome.
Data set [8] in a line: Cmax in rat at 10 mg/kg. Format: ADME, organism-based. Further details: dose 10 mg/kg. Conditions: in vivo.
Data set [9] in a line: Volume of distribution at steady state in rat at 10 mg/kg. Type of data set: ADME, organism-based. Also noted: dose 10 mg/kg. The following applies: in vivo, read-out: Vdss.
Data set [10] concerns Rattus norvegicus. Put plainly: Antiallodynic activity against chronic constriction injury cold allodynia in rat assessed as inhibition of cold hypersensitivity at 10 mg/kg, po measured after 2 hrs post dosing. Type of data set: functional, organism-based. Further details: dose 10 mg/kg.
A short description of data set [11]: Clearance in rat at 10 mg/kg. Type of data set: ADME, organism-based. Conditions: in vivo. Also noted: dose 10 mg/kg.
The next data set addresses T2, Cytochrome P450 1A2 (Homo sapiens, UniProt P05177).
T2 sequence (P05177 whole entry): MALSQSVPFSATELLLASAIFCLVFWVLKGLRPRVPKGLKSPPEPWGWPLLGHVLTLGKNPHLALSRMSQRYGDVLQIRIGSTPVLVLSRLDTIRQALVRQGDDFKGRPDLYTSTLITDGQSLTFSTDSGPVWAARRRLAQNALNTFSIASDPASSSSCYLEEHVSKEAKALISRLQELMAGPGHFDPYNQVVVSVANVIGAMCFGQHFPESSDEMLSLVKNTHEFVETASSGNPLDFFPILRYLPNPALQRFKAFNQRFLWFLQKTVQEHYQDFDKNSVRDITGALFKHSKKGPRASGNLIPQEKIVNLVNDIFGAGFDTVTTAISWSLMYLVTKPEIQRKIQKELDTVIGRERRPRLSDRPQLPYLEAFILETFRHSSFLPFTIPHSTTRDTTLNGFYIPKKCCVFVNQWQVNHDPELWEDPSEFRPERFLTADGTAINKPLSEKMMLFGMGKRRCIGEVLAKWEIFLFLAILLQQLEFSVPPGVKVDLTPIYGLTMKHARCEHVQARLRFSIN
Put plainly: Inhibition of recombinant CYP1A2. Type of data set: ADME.

The next data set addresses CYP2C9 (Homo sapiens, UniProt P11712). Put plainly: Inhibition of CYP2C9 in human liver microsomes at 3.3 uM. Type of data set: ADME, Microsome.
The target in another data set is Cytochrome P450 2D6 (Homo sapiens, UniProt P10635). As to the kind of experiment: Inhibition of recombinant CYP2D6. Format: ADME.
Cytochrome P450 2D6, sequence (P10635 whole entry): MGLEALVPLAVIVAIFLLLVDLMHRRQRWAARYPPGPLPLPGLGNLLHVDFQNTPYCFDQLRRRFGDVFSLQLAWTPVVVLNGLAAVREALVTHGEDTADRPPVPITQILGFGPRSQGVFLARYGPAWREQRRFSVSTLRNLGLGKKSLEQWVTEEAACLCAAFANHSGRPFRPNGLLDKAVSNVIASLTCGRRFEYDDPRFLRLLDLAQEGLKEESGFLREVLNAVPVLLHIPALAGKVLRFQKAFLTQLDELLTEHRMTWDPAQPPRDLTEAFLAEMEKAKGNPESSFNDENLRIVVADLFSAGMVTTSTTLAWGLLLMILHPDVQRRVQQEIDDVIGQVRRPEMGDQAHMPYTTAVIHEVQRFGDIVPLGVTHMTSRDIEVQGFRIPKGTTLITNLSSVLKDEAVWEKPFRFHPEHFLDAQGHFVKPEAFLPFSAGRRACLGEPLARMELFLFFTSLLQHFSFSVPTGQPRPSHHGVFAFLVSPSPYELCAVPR
A further data set addresses Cytochrome P450 2C9 (Homo sapiens, UniProt P11712). Put plainly: Inhibition of recombinant CYP2C9. Format: ADME.
The subject of data set [12] is Rattus norvegicus. Put plainly: Antiallodynic activity against chronic constriction injury cold allodynia in rat assessed as inhibition of cold hypersensitivity at 10 mg/kg, po measured after 4 hrs post dosing. Also noted: dose 10 mg/kg. Type of data set: functional, organism-based.
For data set [13], the system named is Rattus norvegicus. As to the kind of experiment: Antiallodynic activity against chronic constriction injury cold allodynia in rat assessed as inhibition of cold hypersensitivity at 30 mg/kg, po measured after 2 to 3 hrs post dosing. Type of data set: functional.
The target of data set [14] is Transient receptor potential cation channel subfamily M member 8 (Rattus norvegicus, UniProt Q8R455). As to the kind of experiment: Antagonist activity at rat TRPM8 by calcium flux assay. Type of data set: functional.
The nature of data set [15]: Tmax in rat at 10 mg/kg. Format: ADME, organism-based. Also noted: dose 10 mg/kg. Conditions: in vivo.
Data set [16] concerns Rattus norvegicus. As to the kind of experiment: Antiallodynic activity against chronic constriction injury cold allodynia in rat assessed as inhibition of cold hypersensitivity at 10 mg/kg, po measured after 2 to 3 hrs post dosing. Format: functional.
Data set [17] addresses Transient receptor potential cation channel subfamily M member 8 (Homo sapiens, UniProt Q7Z2W7). Put plainly: Antagonist activity at human TRPM8 by calcium flux assay. Format: functional.
In data set [18] the test system is Rattus norvegicus. Put plainly: Inhibition of icilin-induced wet dog shakes behavior in po dosed rat administered 60 mins prior to icilin challenge. Format: functional.
The target in data set [19] is T3, Cytochrome P450 2C19 (Homo sapiens, UniProt P33261). As to the kind of experiment: Inhibition of recombinant CYP2C19. Type of data set: ADME.
T3 sequence (P33261 whole entry): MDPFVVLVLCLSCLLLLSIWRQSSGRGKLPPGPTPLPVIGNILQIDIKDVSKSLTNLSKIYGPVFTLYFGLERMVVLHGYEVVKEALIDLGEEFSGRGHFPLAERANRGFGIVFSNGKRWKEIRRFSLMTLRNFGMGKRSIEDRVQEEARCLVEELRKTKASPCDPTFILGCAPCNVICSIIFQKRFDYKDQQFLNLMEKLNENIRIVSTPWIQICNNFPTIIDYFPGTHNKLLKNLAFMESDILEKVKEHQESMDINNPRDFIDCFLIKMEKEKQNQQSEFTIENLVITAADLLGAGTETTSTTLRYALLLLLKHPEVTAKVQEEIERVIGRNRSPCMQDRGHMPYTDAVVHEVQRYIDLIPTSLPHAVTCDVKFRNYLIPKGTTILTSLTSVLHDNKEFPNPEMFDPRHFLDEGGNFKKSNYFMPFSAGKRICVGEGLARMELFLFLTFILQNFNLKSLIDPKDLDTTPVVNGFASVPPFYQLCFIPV
In a further data set the test system is Liver microsomes. Put plainly: Metabolic stability in human liver microsomes assessed as CYP3A4-mediated glutathione adduct formation by glutathione conjugation assay. Type of data set: ADME, Microsome.
Data set [20] addresses T3, Cytochrome P450 2C19. Put plainly: Inhibition of CYP2C19 in human liver microsomes. Type of data set: ADME, Microsome.
The nature of data set [21]: Oral bioavailability in rat at 10 mg/kg. Format: ADME, organism-based. Conditions: in vivo.
Data set [22] addresses T1, Cytochrome P450 3A4. As to the kind of experiment: Inhibition of recombinant CYP3A4. Type of data set: ADME.

T1 sequence (P08684 whole entry): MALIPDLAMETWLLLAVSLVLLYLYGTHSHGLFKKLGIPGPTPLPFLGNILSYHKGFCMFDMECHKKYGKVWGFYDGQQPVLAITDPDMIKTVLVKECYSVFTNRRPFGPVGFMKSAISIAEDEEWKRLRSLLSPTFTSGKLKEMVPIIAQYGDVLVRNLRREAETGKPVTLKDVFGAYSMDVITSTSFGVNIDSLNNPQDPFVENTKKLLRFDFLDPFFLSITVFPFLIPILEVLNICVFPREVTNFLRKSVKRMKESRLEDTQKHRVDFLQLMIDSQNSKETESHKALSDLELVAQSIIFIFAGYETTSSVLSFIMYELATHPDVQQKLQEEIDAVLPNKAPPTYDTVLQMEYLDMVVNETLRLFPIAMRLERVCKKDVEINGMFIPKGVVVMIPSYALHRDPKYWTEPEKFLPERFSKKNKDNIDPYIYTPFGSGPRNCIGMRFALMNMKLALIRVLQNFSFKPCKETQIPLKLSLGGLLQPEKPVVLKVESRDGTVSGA
Transient receptor potential cation channel subfamily M member 8 (Homo sapiens, UniProt Q7Z2W7), sequence (Q7Z2W7 whole entry): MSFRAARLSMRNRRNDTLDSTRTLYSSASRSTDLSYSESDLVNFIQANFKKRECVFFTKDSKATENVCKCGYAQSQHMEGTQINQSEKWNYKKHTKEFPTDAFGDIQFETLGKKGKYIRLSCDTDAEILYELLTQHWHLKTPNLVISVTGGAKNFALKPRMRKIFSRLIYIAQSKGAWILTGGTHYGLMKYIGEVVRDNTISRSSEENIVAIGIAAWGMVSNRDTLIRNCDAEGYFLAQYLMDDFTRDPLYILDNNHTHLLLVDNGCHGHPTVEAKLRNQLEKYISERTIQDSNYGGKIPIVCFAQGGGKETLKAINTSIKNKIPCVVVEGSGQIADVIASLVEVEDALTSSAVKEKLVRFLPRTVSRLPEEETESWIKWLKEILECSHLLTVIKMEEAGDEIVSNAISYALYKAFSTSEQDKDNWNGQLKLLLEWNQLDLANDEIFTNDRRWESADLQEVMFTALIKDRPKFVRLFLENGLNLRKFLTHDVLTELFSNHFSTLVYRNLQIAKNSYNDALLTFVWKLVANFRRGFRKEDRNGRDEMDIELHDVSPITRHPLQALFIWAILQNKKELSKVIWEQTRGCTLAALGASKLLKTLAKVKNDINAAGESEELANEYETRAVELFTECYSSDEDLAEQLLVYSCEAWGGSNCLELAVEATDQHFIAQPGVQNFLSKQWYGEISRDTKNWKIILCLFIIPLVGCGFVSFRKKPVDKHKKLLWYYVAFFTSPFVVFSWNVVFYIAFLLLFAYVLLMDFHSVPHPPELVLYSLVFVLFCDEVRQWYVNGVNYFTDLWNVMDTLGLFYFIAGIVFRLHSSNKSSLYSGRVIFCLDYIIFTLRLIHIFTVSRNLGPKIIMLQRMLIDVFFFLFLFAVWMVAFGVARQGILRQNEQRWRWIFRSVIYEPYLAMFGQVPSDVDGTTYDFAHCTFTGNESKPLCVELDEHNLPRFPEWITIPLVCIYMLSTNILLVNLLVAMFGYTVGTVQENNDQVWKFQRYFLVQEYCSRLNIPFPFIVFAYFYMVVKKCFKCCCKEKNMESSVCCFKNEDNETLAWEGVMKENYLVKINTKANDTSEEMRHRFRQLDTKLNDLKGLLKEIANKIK
CYP2C9, sequence (P11712 whole entry): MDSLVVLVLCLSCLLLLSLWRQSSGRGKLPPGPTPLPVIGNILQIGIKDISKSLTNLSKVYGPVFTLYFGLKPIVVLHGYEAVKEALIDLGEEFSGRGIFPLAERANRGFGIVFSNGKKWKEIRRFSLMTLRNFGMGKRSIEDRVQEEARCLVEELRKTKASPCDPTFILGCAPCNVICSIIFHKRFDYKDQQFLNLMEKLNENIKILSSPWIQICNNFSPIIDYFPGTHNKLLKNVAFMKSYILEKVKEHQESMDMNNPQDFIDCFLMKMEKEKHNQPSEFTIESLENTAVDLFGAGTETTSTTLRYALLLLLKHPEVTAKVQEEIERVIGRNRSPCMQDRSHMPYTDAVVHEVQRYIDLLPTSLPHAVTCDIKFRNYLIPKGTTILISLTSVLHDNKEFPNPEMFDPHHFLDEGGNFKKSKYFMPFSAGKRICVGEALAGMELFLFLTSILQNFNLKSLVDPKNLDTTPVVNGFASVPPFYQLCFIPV
Cytochrome P450 2C9, sequence (P11712 whole entry): as above

Consider `FC1(F)CCC(/C=C/c2nc3cc(-c4ccccc4C(F)(F)F)ccc3[nH]2)CC1`, for which the results for the remaining at 10 min in data set [1], in [3] and in [4] were 100%, 39% and 47%, respectively. Besides, the IC50 in data set [2] was 21 nM.

In the case of `Fc1cccc(C(F)(F)F)c1-c1ccc2[nH]c(/C=C/C3CCCCC3)nc2c1`, the remaining at 10 min came to 66% in data set [1], 42% in [3] and 67% in [4]. Further, the IC50 in data set [2] amounted to 8.6 nM.

Consider `Cc1ccccc1-c1ccc2[nH]c(/C=C/C3CCCCC3)nc2c1`, for which the remaining at 10 min in data set [1] was 15%; in data set [3], 13%; in data set [4], 77%. Further, the IC50 in data set [2] came to 7.1 nM.

Regarding `Clc1ccccc1-c1ccc2[nH]c(/C=C/C3CCCCC3)nc2c1`, the remaining at 10 min stood at 39% in [1] and 71% in data set [4]. Also, the IC50 in data set [2] was 8.9 nM.

Take `CN1CCC(/C=C/c2nc3cc(-c4ccccc4C(F)(F)F)ccc3[nH]2)CC1`: the inhibition in data set [5] came out at 1%.

Consider `FC(F)(F)c1ccccc1-c1ccc2[nH]c(/C=C/C3CCNCC3)nc2c1`, for which the inhibition in data set [5] was determined as 16%. For the same compound, the remaining at 10 min was 86% in data set [1], 98% in data set [3] and 99% in data set [4].

In the case of `FC(F)(F)c1ccccc1-c1ccc2[nH]c(/C=C/C3CCSCC3)nc2c1`, the remaining at 10 min in data set [1] is 6%; in data set [3], 8%; in [4] it was 67%.

Regarding `FC(F)(F)Oc1ccccc1-c1ccc2[nH]c(/C=C/C3CCCC3)nc2c1`, the values for the remaining at 10 min in [1] and in data set [4] were 71% and 84%, respectively. Besides, the IC50 in data set [2] came to 110 nM.

Consider `FC(F)(F)Oc1ccccc1-c1ccc2[nH]c(/C=C/C3CCCCC3)nc2c1`, for which the remaining at 10 min in data set [1] was determined as 91%; in data set [4] it was 71%.

The compound `FC(F)(F)c1ccccc1-c1ccc2[nH]c(/C=C/C3CCCCC3)nc2c1` gave a half-life in data set [6] of 2.9 h. For the same compound, the half-maximal inhibitory concentration (IC50) on Cytochrome P450 3A4 [7] was over 30000 nM; on Cytochrome P450 1A2, over 10000 nM; at Cytochrome P450 2D6 it was over 10000 nM; at Cytochrome P450 2C9, 3500 nM; in data set [2] it was 11 nM; in data set [14] it was 20 nM. Further, the IC50 was 15 nM in data set [17], over 10000 nM at Cytochrome P450 2C19 [19], over 30000 nM against Cytochrome P450 2C19 [20] and 3500 nM on Cytochrome P450 3A4 [22]. Further, the highest level in data set [8] (Cmax) was 225 ng/mL. Besides, the Vd in data set [9] stood at 9.5 L/kg. In addition, the outcome in the data set with Rattus norvegicus [10] and in the data set on Rattus norvegicus [12] was Active. Also, the clearance in data set [11] stood at 22 mL/min/kg. In addition, the remaining at 10 min worked out at 58% in data set [1], 20% in data set [3] and 85% in data set [4]. On CYP2C9, the inhibition at 3.3 µM was 62%. The inhibition in vivo at 30 mg/kg in the data set with Rattus norvegicus [13] turned out to be 90%. Besides, the Tmax in data set [15] was determined as 1.6 h. Further, in the data set with Rattus norvegicus [16], the inhibition in vivo at 10 mg/kg came out at 90%. In the data set on Rattus norvegicus [18], this compound showed an ED50 of 6.4 mg/kg. Further, the inhibition result in the data set with Rattus norvegicus [18] is “Dose-dependent effect”. For the same compound, the Stability result in the data set with Liver microsomes is “Stable”. In addition, the bioavailability in [21] worked out at 14%.

Take `CC(=O)N1CCC(/C=C/c2nc3cc(-c4ccccc4C(F)(F)F)ccc3[nH]2)CC1`: the inhibition in data set [5] amounted to 1%. Also, the values for the remaining at 10 min in data set [1], in [3] and in [4] were 85%, 100% and 100%, respectively.

As for `O=S1(=O)CCC(/C=C/c2nc3cc(-c4ccccc4C(F)(F)F)ccc3[nH]2)CC1`, in data set [5], the inhibition worked out at 63%. Besides, the remaining at 10 min in data set [1] came to 74%; in data set [3] it was 60%; in data set [4], 91%.

Consider `CC1(/C=C/c2nc3cc(-c4ccccc4C(F)(F)F)ccc3[nH]2)CCOCC1`, for which the remaining at 10 min worked out at 20% in [1], 35% in data set [3] and 62% in data set [4]. Besides, in data set [2], the half-maximal inhibitory concentration (IC50) was 8.9 nM.

On to `FC(F)(F)c1cccc(C(F)(F)F)c1-c1ccc2[nH]c(/C=C/C3CCCCC3)nc2c1`, for which the remaining at 10 min in data set [1] worked out at 44%; in data set [3] it was 61%; in data set [4], 56%. The IC50 in data set [2] was 12.3 nM.

Consider `C(=C\C1CCCCC1)/c1nc2cc(-c3ccccc3)ccc2[nH]1`, for which, in [2], the IC50 was 110 nM.

On to `FC(F)(F)c1cccnc1-c1ccc2[nH]c(/C=C/C3CCCCC3)nc2c1`, for which the remaining at 10 min was 72% in data set [1], 42% in [3] and 90% in data set [4]. In addition, the IC50 in data set [2] is 38 nM.

Take `COc1ccccc1-c1ccc2[nH]c(/C=C/C3CCCCC3)nc2c1`: the figures for the remaining at 10 min in data set [1] and in [4] were 10% and 62%, respectively. Also, in [2], the IC50 was found to be 8.9 nM.

Turning to `CC1(/C=C/c2nc3cc(-c4ccccc4C(F)(F)F)ccc3[nH]2)CCC(F)(F)CC1`, the remaining at 10 min in data set [1] came to 84%; in data set [3] it was 28%; in data set [4] it was 97%. In addition, the IC50 in [2] came to 8.9 nM.

Regarding `Fc1ccccc1-c1ccc2[nH]c(/C=C/C3CCCCC3)nc2c1`, the remaining at 10 min is 34% in data set [1], 75% in data set [3] and 98% in [4]. In addition, in data set [2], the IC50 was determined as 21 nM.

Turning to `CS(=O)(=O)N1CCC(/C=C/c2nc3cc(-c4ccccc4C(F)(F)F)ccc3[nH]2)CC1`, the inhibition in [5] came to 14%. For the same compound, the remaining at 10 min in data set [3] was determined as 75%.

Regarding `FC(F)(F)c1ccccc1-c1ccc2[nH]c(/C=C/C3CCOCC3)nc2c1`, the remaining at 10 min in data set [1] was determined as 79%; in [3] it was 51%; in data set [4], 93%. Besides, the IC50 in [2] amounted to 7.1 nM.

The term IC50 denotes the midpoint of a concentration-inhibition curve. One may read the inhibition as the change of the read-out against control, counted positive when it falls. Broadly, the half-life is how long it takes for the measured level to halve. High values mean slow loss, low ones fast loss. In general, Cmax refers to the peak of the concentration-time curve. The clearance is the volume of plasma or blood freed of the substance per unit of time. Read a low clearance as inefficient removal. A word on the inhibition in vivo: it is the drop in the measured response relative to a control, in per cent. The Tmax is the time at which the peak concentration occurs. In general, ED50 refers to the midpoint of the dose-response relation. A high value points to weaker potency. Usually bioavailability stands for dose-corrected exposure relative to a reference, in per cent.
